According to ChEMBL document CHEMBL1132783, “Dibasic inhibitors of human mast cell tryptase. Part 1: synthesis and optimization of a novel class of inhibitors” (Bioorg Med Chem Lett, 2000):

Assays:
Prothrombin = Prothrombin (Homo sapiens, UniProt P00734); experiment: Inhibitory potency against thrombin
Plasminogen = Plasminogen (Homo sapiens, UniProt P00747); experiment: Inhibitory potency against plasmin
Serine protease 1 = Serine protease 1 (Homo sapiens, UniProt P07477); experiment: Inhibitory potency against trypsin
Chain of Serine protease 1 (P07477 whole entry): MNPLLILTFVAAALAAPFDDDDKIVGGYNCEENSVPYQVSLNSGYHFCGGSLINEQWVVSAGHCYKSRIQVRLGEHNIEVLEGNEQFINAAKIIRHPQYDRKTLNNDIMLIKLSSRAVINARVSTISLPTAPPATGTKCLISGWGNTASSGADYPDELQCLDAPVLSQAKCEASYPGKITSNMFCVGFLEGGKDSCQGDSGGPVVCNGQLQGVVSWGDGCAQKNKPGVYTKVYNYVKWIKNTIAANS

Tryptase beta-1 = Tryptase beta-1 (Homo sapiens, UniProt Q15661); experiment: Inhibitory potency against tryptase
Chain of Tryptase beta-1 (Q15661 whole entry): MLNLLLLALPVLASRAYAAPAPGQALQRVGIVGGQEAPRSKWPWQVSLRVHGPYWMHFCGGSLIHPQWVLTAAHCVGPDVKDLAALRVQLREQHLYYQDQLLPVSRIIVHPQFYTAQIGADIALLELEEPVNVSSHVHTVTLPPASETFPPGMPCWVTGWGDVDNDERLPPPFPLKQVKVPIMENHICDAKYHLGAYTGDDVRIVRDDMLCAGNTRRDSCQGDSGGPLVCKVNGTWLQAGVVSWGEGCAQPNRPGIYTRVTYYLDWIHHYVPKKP

Chain of Plasminogen (P00747 97-580 limits assumed): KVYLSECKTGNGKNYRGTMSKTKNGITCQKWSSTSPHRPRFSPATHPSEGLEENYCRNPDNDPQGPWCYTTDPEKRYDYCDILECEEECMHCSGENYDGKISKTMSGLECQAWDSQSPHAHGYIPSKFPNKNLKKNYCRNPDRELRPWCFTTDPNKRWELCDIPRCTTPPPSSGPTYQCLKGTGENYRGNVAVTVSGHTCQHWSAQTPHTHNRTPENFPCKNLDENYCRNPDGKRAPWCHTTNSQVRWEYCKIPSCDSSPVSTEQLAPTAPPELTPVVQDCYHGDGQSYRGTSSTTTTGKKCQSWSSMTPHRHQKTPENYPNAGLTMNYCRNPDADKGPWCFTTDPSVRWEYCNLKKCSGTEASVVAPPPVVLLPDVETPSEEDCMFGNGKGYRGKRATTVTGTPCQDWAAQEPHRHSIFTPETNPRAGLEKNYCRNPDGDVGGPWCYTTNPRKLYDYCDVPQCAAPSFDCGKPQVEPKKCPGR
Chain of Plasminogen (P00747 581-810 limits assumed): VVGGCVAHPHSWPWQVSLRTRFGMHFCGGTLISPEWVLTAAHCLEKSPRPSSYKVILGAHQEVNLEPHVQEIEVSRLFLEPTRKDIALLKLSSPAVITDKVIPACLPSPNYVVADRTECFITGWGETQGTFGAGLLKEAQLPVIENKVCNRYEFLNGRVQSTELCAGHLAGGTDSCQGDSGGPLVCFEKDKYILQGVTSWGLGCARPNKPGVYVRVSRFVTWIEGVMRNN

NCc1ccc(CNC(=O)CCCC(=O)NCc2ccc(CNC(=O)CCCC(=O)NCc3ccc(CN)cc3)cc2)cc1
Ki (Prothrombin): > 1000 µM
Ki (Plasminogen): > 1000 µM
Ki (Serine protease 1): 274 µM
Ki (Tryptase beta-1): 0.009 µM

N=C(N)Nc1ccc(CNC(=O)CCC(=O)NCc2ccc(CNC(=O)CCC(=O)NCc3ccc(NC(=N)N)cc3)cc2)cc1
Ki (Prothrombin): > 1000 µM
Ki (Plasminogen): > 1000 µM
Ki (Serine protease 1): 146 µM
Ki (Tryptase beta-1): 0.04 µM

C[C@@H](NC(=O)OCc1ccc(COC(=O)N[C@H](C)C(=O)NCc2ccc(CN)cc2)cc1)C(=O)NCc1ccc(CN)cc1
Ki (Prothrombin): > 1000 µM
Ki (Plasminogen): > 1000 µM
Ki (Serine protease 1): 38 µM
Ki (Tryptase beta-1): 0.031 µM

NCc1ccc(CNC(=O)CNC(=O)OCc2ccc(COC(=O)NCC(=O)NCc3ccc(CN)cc3)cc2)cc1
Ki (Prothrombin): > 1000 µM
Ki (Plasminogen): > 1000 µM
Ki (Tryptase beta-1): 0.0006 µM

N=C(N)Nc1ccc(CNC(=O)CCNC(=O)OCc2ccc(COC(=O)NCCC(=O)NCc3ccc(NC(=N)N)cc3)cc2)cc1
Ki (Prothrombin): > 1000 µM
Ki (Plasminogen): > 1000 µM
Ki (Serine protease 1): 72 µM
Ki (Tryptase beta-1): 0.09 µM

O=C(NCc1ccccc1)N1CCN(C(=O)O[C@H]2CCC[C@@H](OC(=O)N3CCN(C(=O)NCc4ccccc4)CC3)CCC2)CC1
Ki (Prothrombin): 14 µM
Ki (Plasminogen): > 1000 µM
Ki (Serine protease 1): 44 µM
Ki (Tryptase beta-1): 101 µM

N=C(N)Nc1ccc(CNC(=O)CC(=O)NCc2ccc(CNC(=O)CC(=O)NCc3ccc(NC(=N)N)cc3)cc2)cc1
Ki (Prothrombin): > 1000 µM
Ki (Plasminogen): > 1000 µM
Ki (Serine protease 1): 73 µM
Ki (Tryptase beta-1): 0.68 µM

N=C(N)Nc1ccc(CNC(=O)N2CCN(C(=O)O[C@H]3CCC[C@@H](OC(=O)N4CCN(C(=O)NCc5ccc(NC(=N)N)cc5)CC4)CCC3)CC2)cc1
Ki (Prothrombin): 435 µM
Ki (Plasminogen): 494 µM
Ki (Serine protease 1): 39 µM

NC(N)=Nc1ccc(CNC(=O)NCC(=O)O[C@H]2CCC[C@@H](OC(=O)CNC(=O)NCc3ccc(N=C(N)N)cc3)CCC2)cc1
Ki (Prothrombin): > 1000 µM
Ki (Plasminogen): > 1000 µM
Ki (Serine protease 1): 78 µM
Ki (Tryptase beta-1): 0.002 µM

NCc1ccc(CNC(=O)CCC(=O)NCc2ccc(CNC(=O)CCC(=O)NCc3ccc(CN)cc3)cc2)cc1
Ki (Prothrombin): > 1000 µM
Ki (Plasminogen): 769 µM
Ki (Serine protease 1): 237 µM
Ki (Tryptase beta-1): 0.003 µM

NCc1ccc(CNC(=O)CC(=O)NCc2ccc(CNC(=O)CC(=O)NCc3ccc(CN)cc3)cc2)cc1
Ki (Prothrombin): > 1000 µM
Ki (Plasminogen): > 1000 µM
Ki (Serine protease 1): 317 µM
Ki (Tryptase beta-1): 0.15 µM

NC(N)=Nc1ccc(CNC(=O)CNC(=O)OCc2ccc(COC(=O)NCC(=O)NCc3ccc(N=C(N)N)cc3)cc2)cc1
Ki (Prothrombin): > 1000 µM
Ki (Plasminogen): > 1000 µM
Ki (Serine protease 1): 56 µM
Ki (Tryptase beta-1): 0.01 µM

CN(Cc1ccc(CN)cc1)C(=O)CCC(=O)NCc1ccc(CNC(=O)CCC(=O)N(C)Cc2ccc(CN)cc2)cc1
Ki (Prothrombin): > 1000 µM
Ki (Plasminogen): > 1000 µM
Ki (Serine protease 1): > 1000 µM
Ki (Tryptase beta-1): 2 µM

N=C(N)Nc1ccc(CNC(=O)CCCC(=O)NCc2ccc(CNC(=O)CCCC(=O)NCc3ccc(NC(=N)N)cc3)cc2)cc1
Ki (Prothrombin): 492 µM
Ki (Plasminogen): > 1000 µM
Ki (Serine protease 1): 70 µM
Ki (Tryptase beta-1): 0.1 µM

N=C(N)Nc1ccc(CNC(=O)N2CCN(C(=O)O[C@H]3CCC[C@@H](OC(=O)N4CCN(C(=O)NCc5ccccc5)CC4)CCC3)CC2)cc1
Ki (Prothrombin): > 1000 µM
Ki (Plasminogen): > 1000 µM
Ki (Serine protease 1): 182 µM
Ki (Tryptase beta-1): 15 µM

CN(Cc1ccc(CN(C)C(=O)CCC(=O)NCc2ccc(CN)cc2)cc1)C(=O)CCC(=O)NCc1ccc(CN)cc1
Ki (Prothrombin): > 1000 µM
Ki (Plasminogen): 214 µM
Ki (Serine protease 1): 162 µM
Ki (Tryptase beta-1): 0.005 µM

C[C@H](NC(=O)OCc1ccc(COC(=O)N[C@@H](C)C(=O)NCc2ccc(CN)cc2)cc1)C(=O)NCc1ccc(CN)cc1
Ki (Prothrombin): > 1000 µM
Ki (Plasminogen): 83 µM
Ki (Serine protease 1): 273 µM
Ki (Tryptase beta-1): 0.366 µM

CN(CC(=O)NCc1ccc(CN)cc1)C(=O)OCc1ccc(COC(=O)N(C)CC(=O)NCc2ccc(CN)cc2)cc1
Ki (Prothrombin): > 1000 µM
Ki (Plasminogen): > 230 µM
Ki (Serine protease 1): 50 µM
Ki (Tryptase beta-1): 0.005 µM
